Drawing on ChEMBL document CHEMBL1201862, “PubChem BioAssay data set” (2004), this text covers AC50, IC50 and EC50 for 47 compounds.

Data set [1] has as its target Cytochrome P450 2D6 (Homo sapiens, UniProt P10635).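 Also: CYP2D6 member of a cytochrome P450 panel assay.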
Data set [2] addresses Cytochrome P450 3A4 (Homo sapiens, UniProt P08684).
The target in data set [3] is T1, Protein skinhead-1 (Caenorhabditis elegans, UniProt P34707).
T1 sequence (P34707 whole entry): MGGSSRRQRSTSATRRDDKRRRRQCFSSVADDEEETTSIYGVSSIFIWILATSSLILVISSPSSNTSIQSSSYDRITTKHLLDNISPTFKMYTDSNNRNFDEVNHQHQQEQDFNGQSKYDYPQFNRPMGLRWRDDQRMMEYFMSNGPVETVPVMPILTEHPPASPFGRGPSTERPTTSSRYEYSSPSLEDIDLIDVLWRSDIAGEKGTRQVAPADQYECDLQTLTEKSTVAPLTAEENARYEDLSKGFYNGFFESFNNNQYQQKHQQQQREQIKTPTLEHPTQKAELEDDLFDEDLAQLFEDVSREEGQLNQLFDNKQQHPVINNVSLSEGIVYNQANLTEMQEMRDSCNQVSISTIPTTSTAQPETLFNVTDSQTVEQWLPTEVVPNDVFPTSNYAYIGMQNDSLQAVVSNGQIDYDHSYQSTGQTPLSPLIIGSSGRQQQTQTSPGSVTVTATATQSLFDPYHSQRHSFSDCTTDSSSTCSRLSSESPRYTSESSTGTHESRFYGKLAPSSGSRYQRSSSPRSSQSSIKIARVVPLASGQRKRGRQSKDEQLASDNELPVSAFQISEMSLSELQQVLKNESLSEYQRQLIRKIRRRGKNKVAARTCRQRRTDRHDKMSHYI
It is filed as functional.

Data set [4] concerns the target Cytochrome P450 2C19 (Homo sapiens, UniProt P33261). Nature of the data set: Cytochrome panel assay with activity outcomes. Panel member name: p450-cyp2c19 Compounds with AC50 equal or less than 10 uM are considered active. It is filed as functional.
In data set [5] the target is Cytochrome P450 2C9 (Homo sapiens, UniProt P11712).
The target of data set [6] is T2, Cytochrome P450 1A2 (Homo sapiens, UniProt P05177).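 Also: PubChem cytochrome P450 panel assay, CYP1A2 panel member.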
T2 sequence (P05177 whole entry): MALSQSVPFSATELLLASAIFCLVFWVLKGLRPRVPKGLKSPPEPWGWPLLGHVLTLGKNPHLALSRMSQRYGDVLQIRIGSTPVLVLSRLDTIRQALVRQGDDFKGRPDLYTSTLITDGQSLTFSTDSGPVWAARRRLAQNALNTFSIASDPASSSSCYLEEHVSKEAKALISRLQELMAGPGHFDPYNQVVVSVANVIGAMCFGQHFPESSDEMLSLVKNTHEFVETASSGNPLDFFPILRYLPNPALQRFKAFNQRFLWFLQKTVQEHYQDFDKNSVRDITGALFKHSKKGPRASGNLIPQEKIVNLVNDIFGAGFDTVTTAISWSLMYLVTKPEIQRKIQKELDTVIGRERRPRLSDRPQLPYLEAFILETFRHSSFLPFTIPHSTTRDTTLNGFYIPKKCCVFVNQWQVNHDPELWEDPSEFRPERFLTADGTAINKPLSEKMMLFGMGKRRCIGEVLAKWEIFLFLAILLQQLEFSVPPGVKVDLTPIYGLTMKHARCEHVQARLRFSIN

The nature of data set [7]: Luminescence Cell-Based Dose Retest to Confirm Inhibitors of Cancer Stem Cells. [Related pubchem assays (depositor defined):AID2717, AID2721]. It is filed as functional. The following applies: Homo sapiens.
Data set [8] is described as follows: luciferase reporter signal suppression in cells – H4 neuroglioma cells, luminescence, dose response (AID 1990). Format: functional, cell-based. (Reporter assays use an easily measured gene product as a stand-in for the process of interest.)
Data set [9] can be described thus: Luminescence Cell-Based Dose Response HTS to Identify Inhibitors of 5'UTR Stem-Loop Driven Prion Protein mRNA Translation in H4 Neuroglioblastoma Cells. [Related pubchem assays: 1827 (Project Summary), 1813 (Primary HTS)]. Format: functional.
Data set [10] in a line: alpha-synuclein stem-loop luciferase translation blockers – H4 neuroglioma cells, luminescence, confirmation (AID 1988). Format: functional, cell-based.
A short description of data set [11]: NIH-3T3 fibroblast cytotoxicity, dose response, cytotoxicity control, cell-based, fluorescence, Alamar Blue, secondary assay (AID 2327).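 Also: NIH-3T3 mouse fibroblasts cultured with fluconazole at 8 µg/mL.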 It is filed as functional. Background: The colour change of resazurin is a common sign of viable cells or microbes.

Where “and” joins values, the source holds several entries; their conditions need not be identical. Equal values may be shown once. Calls of active or inactive are those of the source. Where only a bound is given, the exact number is not on record here.

Sequence of Cytochrome P450 2C19 (P33261 whole entry): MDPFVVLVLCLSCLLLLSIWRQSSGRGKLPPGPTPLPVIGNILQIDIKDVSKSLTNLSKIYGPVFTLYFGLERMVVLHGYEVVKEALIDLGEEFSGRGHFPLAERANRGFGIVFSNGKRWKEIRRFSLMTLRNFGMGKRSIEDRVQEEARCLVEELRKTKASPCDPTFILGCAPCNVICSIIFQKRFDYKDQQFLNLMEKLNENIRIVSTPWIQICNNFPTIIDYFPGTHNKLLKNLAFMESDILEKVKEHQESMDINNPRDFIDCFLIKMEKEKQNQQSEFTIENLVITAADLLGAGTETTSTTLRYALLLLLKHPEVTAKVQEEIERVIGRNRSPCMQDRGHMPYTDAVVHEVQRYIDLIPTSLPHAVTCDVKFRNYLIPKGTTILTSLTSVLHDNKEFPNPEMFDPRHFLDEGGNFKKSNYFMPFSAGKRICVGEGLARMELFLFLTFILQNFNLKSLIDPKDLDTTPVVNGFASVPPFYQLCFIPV
Sequence of Cytochrome P450 2C9 (P11712 whole entry): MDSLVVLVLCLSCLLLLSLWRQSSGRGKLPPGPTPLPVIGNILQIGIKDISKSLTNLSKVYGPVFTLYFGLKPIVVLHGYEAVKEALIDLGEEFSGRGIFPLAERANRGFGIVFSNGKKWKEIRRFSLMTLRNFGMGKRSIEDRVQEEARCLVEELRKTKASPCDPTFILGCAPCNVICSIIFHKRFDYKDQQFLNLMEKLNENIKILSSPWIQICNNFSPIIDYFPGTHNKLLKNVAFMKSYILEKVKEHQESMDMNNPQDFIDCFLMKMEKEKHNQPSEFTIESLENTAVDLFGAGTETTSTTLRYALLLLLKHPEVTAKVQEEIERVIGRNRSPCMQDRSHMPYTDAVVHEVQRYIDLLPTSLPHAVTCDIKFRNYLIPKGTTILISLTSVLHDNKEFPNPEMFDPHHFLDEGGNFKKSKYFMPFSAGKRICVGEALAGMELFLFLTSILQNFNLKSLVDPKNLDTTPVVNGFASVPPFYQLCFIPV
Sequence of Cytochrome P450 3A4 (P08684 whole entry): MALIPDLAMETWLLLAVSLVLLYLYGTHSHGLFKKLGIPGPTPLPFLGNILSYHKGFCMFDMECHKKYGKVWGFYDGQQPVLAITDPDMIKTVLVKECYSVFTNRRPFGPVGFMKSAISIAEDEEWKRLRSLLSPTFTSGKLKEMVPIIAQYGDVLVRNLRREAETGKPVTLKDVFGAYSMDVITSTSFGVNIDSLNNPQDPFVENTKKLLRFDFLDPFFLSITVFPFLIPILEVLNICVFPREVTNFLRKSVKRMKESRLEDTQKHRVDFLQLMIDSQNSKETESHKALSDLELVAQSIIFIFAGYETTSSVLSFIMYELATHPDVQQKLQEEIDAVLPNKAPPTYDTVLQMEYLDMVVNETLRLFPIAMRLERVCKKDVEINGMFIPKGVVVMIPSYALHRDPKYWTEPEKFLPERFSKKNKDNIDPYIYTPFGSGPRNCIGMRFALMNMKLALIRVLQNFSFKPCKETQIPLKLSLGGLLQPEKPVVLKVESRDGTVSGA
Sequence of Cytochrome P450 2D6 (P10635 whole entry): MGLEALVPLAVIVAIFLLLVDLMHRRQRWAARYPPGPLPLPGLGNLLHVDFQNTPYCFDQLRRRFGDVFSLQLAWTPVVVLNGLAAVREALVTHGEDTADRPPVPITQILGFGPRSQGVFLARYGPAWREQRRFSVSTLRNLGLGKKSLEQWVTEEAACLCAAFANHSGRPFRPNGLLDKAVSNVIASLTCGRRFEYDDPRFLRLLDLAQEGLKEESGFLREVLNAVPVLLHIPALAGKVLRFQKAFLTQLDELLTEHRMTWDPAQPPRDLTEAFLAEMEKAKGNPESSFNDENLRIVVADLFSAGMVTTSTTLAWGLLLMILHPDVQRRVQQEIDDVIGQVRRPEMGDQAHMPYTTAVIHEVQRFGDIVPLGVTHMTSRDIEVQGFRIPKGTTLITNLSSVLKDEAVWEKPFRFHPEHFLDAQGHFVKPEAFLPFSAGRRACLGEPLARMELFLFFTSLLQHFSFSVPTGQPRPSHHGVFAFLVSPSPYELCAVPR

As a reminder, the AC50 is the concentration at which the activity in the assay is half-maximal. Regarding `C[C@H](N)C1CCC(C(=O)Nc2ccncc2)CC1` (some centres not stated), the AC50 in [1] and in [2] was 15.8 µM (inconclusive) each time.

A word on the IC50: it is the concentration that inhibits the measured activity by half. In the case of `CCc1nnc(NC(=O)CSc2nnc(COc3cccc(C)c3)o2)s1`, the IC50 in data set [3] was > 100 µM (inactive).

`Cc1ccc(C(=O)Nc2ccc(C(=O)/C=C/c3cccs3)cc2)cc1`: the AC50 in data set [4] (read-out: AC50) was 7.08 µM (inconclusive); in [2], 5.01 µM (inconclusive); in data set [5], 11.2 µM (inconclusive).

`CCc1c(C)c(C#N)c2nc3ccccc3n2c1Nc1c(C)n(C)n(-c2ccccc2)c1=O`: the AC50 in data set [4] (read-out: AC50) is 25.1 µM (inconclusive); in data set [5] it was 5.01 µM (inconclusive).

As to `O=C(Cn1c(-c2cscn2)nc2ccccc21)Nc1cc(F)ccc1F`, in data set [1], the AC50 is 22.4 µM (inconclusive).

For `CCn1c(SCC(=O)Nc2ccc(NC(=O)c3cccs3)cc2)nnc1-c1cccnc1`, the IC50 in data set [3] is > 100 µM (inactive).

Regarding `O=C(CSc1c[nH]c2ccccc12)N1CCOCC1`, in [6], the AC50 was 17.8 µM (inconclusive).

For `COc1cccc(Nc2ncc3nc(-c4cn(C)c5ccccc45)c(=O)n(CCC#N)c3n2)c1`, the AC50 in data set [6] is 20 µM (inconclusive); in data set [2], 1.58 µM (inconclusive).

As to `c1ccc(CN2CC[C@@]3(CCCNC3)C2)cc1`, the figures for the AC50 in [1] and in data set [2] were 15.8 µM (inconclusive) and 10 µM (inconclusive), respectively.

As for `CCC1=NN(C(=O)c2ccc(Cl)cc2)C(O)(c2ccc(C)cc2)C1` (configuration not stated), the AC50 in data set [7] is 4.64 µM (active).

On to `COc1ccc(OC)c(-c2csc(N(CC3CCCO3)C(=O)C3CCCCC3)n2)c1` (configuration not stated), for which, in data set [7], the AC50 is 3.5 µM (active).

For the compound `O=C(COC(=O)c1cccc(S(=O)(=O)N2CCOCC2)c1)Nc1nc(-c2ccccc2Cl)cs1`, the AC50 was 8.91 µM (inconclusive) in data set [6] and 11.2 µM (inconclusive) in [2].

One may read the EC50 as the concentration needed to bring the measured effect to its halfway point. As to `O=C(NC1(C(F)(F)F)NC(=O)N(Cc2cccnc2)C1=O)c1ccccc1` (configuration not stated), the concentration for a half-maximal effect (EC50) in data set [8], in data set [9] and in data set [10] was > 120 µM (not active) each time. Besides, the AC50 in [2] is 0.891 µM (inconclusive); in [5] it was 17.8 µM (inconclusive).

On to `CN(Cc1ccc(-n2cccn2)cc1)C(=O)c1cnn2c1NC(c1ccco1)CC2C(F)(F)F` (configuration not stated), for which the EC50 in data set [8] is > 120 µM (not active); in data set [9] it was > 120 µM (not active); in data set [10], 31.5 µM (active).

Turning to `O=C(CSc1nnnn1-c1ccccc1)NCc1cccs1`, the AC50 in [6] was 31.6 µM (inconclusive).

As to `Cn1cccc1C(=O)N1CCC2(CCCN(Cc3ccc(C#N)cc3)C2)CC1`, the AC50 was 12.6 µM (inconclusive) in [6] and 15.8 µM (inconclusive) in data set [2].

As for `Brc1ccc(CSc2nnc(-c3cccnc3)o2)cc1`, the IC50 in [3] is 54.5 µM (inactive).

As to `CCOc1c2ccc(C(=O)NCc3ccc(OC(F)(F)F)cc3)cc2nn1CC`, the AC50 in data set [4] (read-out: AC50) was 39.8 µM (inconclusive); in [1], 25.1 µM (inconclusive); in data set [6], 14.1 µM (inconclusive); in data set [5], 39.8 µM (inconclusive).

On to `N#C/C=C1\n2c(nc3ccccc32)OC12CCCCC2`, for which the EC50 in data set [8], in data set [9] and in data set [10] was > 120 µM (not active) in each case.

Consider `CC(=O)N1CCC2(CCCN(Cc3cc(C(F)(F)F)cc(C(F)(F)F)c3)C2)CC1`, for which the AC50 in data set [1] was 39.8 µM (inconclusive); in data set [2], 15.8 µM (inconclusive).

Consider `Cc1cc(C)n(CC(O)Cn2c(C)c(C)c3ccccc32)n1` (configuration not stated), for which the IC50 in [3] was > 100 µM (inactive).

Consider `Cc1cc(C(=O)Nc2nc3c(s2)CCCC3)cs1`, for which, in data set [7], the AC50 was 1.97 µM (active).

`COc1ccc(C(=O)N2CCC3(CC2)CN(Cc2ccc(C#N)cc2)C3)cc1`: the AC50 was 12.6 µM (inconclusive) in [1] and 0.631 µM (inconclusive) in data set [2].

`Cc1ccccc1-c1cncnc1Nc1ccccc1`: the AC50 in [1] was 39.8 µM (inconclusive).

As for `Nc1nnnn1CCO`, the AC50 in data set [6] was 6.31 µM (inconclusive).

`O=C(Nc1ccccc1N1CCOCC1)c1ccc(S(=O)(=O)NCc2ccco2)cc1`: the EC50 in data set [11] is > 150 µM (inactive).

As to `COC(=O)CCC(=O)NNC(=O)c1ccc(Br)cc1`, in data set [6], the AC50 was 11.2 µM (inconclusive).

Turning to `O=C1COc2ccc(OCc3ccc(F)cc3)cc21`, in data set [6], the half-maximal activity concentration (AC50) was 7.08 µM (inconclusive).

For `CC(=O)Nc1nnc(CCN2CCCCC2)s1`, the AC50 entry in [4] was “inconclusive”; in data set [1], 1.26 µM (inconclusive).

As to `Cc1ccc(CSc2nc3c(c(=O)[nH]c(=O)n3C)n2CCC(C)C)cc1`, the figures for the EC50 in [8], in data set [9] and in data set [10] were 24.8 µM (active), 19.4 µM (active) and 16.2 µM (active), respectively.

As to `CCNc1ncc2nc(-c3cccc(C#N)c3)c(=O)n(C)c2n1`, the AC50 is 2 µM (inconclusive) in [1] and 31.6 µM (inconclusive) in data set [2].

As to `COC(=O)C/C=C\[C@@H](C)[C@@H](/C=N\OC[C@@H](C)[C@H](OCc1ccccc1)C(C)C)OC`, the AC50 in [4] (read-out: AC50) was 2 µM (inconclusive); in [2], 3.16 µM (inconclusive); in data set [5] it was 3.16 µM (inconclusive).

For the compound `Cc1nn(-c2ccccc2)c2nc(N)c(C#N)c(-c3ccc(C(C)(C)C)cc3)c12`, in data set [7], the AC50 is 2.14 µM (active).

In the case of `N#Cc1ccccc1-c1ccc2ncnc(NCc3cccs3)c2c1`, the AC50 in data set [4] (read-out: AC50) was 39.8 µM (inconclusive); in data set [5] it was 1 µM (inconclusive).

As for `Cc1cnc(CNc2ncnc3ccc(-c4ccccc4C(F)(F)F)cc23)cn1`, the AC50 in data set [4] (read-out: AC50) is 20 µM (inconclusive); in data set [1], 25.1 µM (inconclusive).

On to `CC1(C)C[C@H](O)[C@]2(CO)[C@H](O)C[C@]3(C)C(=CCC4[C@@]5(C)CC[C@H](O)C(C)(C)C5CC[C@]43C)[C@@H]2C1` (some centres not stated), for which, in data set [7], the AC50 is 1.97 µM (active).

Turning to `Cc1ccc(-c2csc(NCCn3c(-c4ccncc4)nc4cc(C(F)(F)F)ccc43)n2)cc1`, in data set [7], the concentration at half-maximal activity (AC50) was 8 µM (active).

In the case of `O=C(NCC1CCCO1)c1nn2c(c1Cl)NC(c1ccc(F)cc1)CC2C(F)(F)F` (configuration not stated), the AC50 in data set [6] was 12.6 µM (inconclusive); in [2], 14.1 µM (inconclusive).

As for `Cc1ccc(S(=O)(=O)N2CCCC(C(=O)NCCCN3CCCCC3C)C2)cc1` (configuration not stated), the results for the AC50 result in data set [4] and in data set [1] were “inconclusive” and 17.8 µM (inconclusive), respectively.

For the compound `CC(=O)OC1N=C(c2ccccc2)c2cc(Br)ccc2N(C)C1=O` (configuration not stated), the AC50 in data set [4] (read-out: AC50) is 39.8 µM (inconclusive); in data set [5], 17.8 µM (inconclusive).

On to `COc1ccc(CC2SC(N/N=C/c3ccccc3O)=NC2=O)cc1` (configuration not stated), for which, in [7], the AC50 is 8.79 µM (active).

`O=C(OCCN1CCOCC1)C1(c2ccccc2)CCCCC1`: the AC50 in [4] (read-out: AC50) is 6.31 µM (inconclusive) and 10 µM (inconclusive); in data set [1] it was 12.6 µM (inconclusive) and 6.31 µM (inconclusive); in data set [6], 31.6 µM (inconclusive); in data set [5], 10 µM (inconclusive) and 15.8 µM (inconclusive).

For `COc1cc(C(=O)N/N=C(\Cc2ncc[nH]2)c2ccccc2)cc(OC)c1OC`, the AC50 in data set [7] is 2.89 µM (active).

On to `CN(C)c1ccc(/N=C/c2cccn2C)cc1`, for which the EC50 in [11] was 25.9 µM (active).

Take `Cc1ccc(-c2nnc(S)n2/N=C/c2cccn2C)cc1`: the AC50 in data set [1] was 5.01 µM (inconclusive).

Take `CCN1C(=O)/C(=C\c2ccncc2)S/C1=N\c1ccc(C)c(C)c1`: in [7], the AC50 is 3.77 µM (active).

For `O=C1C=CC(=O)c2c1ccc1c2ccc2ccccc21`, the AC50 in data set [1] was 5.01 µM (inconclusive).
